# Assay: Permeation of adenosine into stratum corneum of forearm skin (tape peel, LC-MS quantification)
# Format: in vivo, human
# Details: forearm of a test subject, Formulation 1 that contains ultrafine bubbles (aerosol spray, actuator D391, nitrogen 0.9 MPa) applied first, then Formulation 2 (0.2% adenosine) applied for 10 minutes, 1 cm by 1 cm stratum corneum
# Excerpt: In order to provide Formulation 1 that contains ultrafine bubbles onto the skin, the aerosol container 10 was filled with Formulation 1, and the interior pressure was set to 0.9 MPa with nitrogen gas. The actuator “D391” having a flow rate adjusting mechanism produced by K. K. Mitani Valves was applied as the spray actuator 11.
# That is, a liquid which was sprayed from the aerosol container 10 and Formulation 1 as an undiluted liquid were applied to two different locations on a forearm of a test subject. Thereafter, Formulation 2 that contains adenosine was applied onto each of the two locations for 10 minutes. Next, 1 cm by 1 cm squares of stratum corneum were peeled from the locations onto which the formulations were applied, stratum corneum components were extracted, and the amounts of adenosine were quantitatively analyzed by the LC-MS method (Liquid Chromatography Mass Spectrometry method).
structure (smiles),measurement,value
Nc1ncnc2c1ncn2[C@@H]1O[C@H](CO)[C@@H](O)[C@H]1O [adenosine],"amount of adenosine within the stratum corneum, relative to the case that Formulation 1 that did not contain ultrafine bubbles was applied",1.6 times

# — patent US20220387469A1, “METHOD OF UTILIZING ULTRAFINE BUBBLES” (Shiseido Company, Ltd., priority 2019, published 2022)
